# Like-named read-outs stand apart in the source and are kept apart here.
# Tests used:
# [1] = tested on: Ralstonia solanacearum (Rs); type: cell-based; details: at the highest peptide concentration (32μg/ml) tested; data not shown; before the tests in minimal media
# [2] = tested on: Eco; type: cell-based, Escherichia coli
# [3] = tested on: Rs; type: cell-based, Ralstonia solanacearum; details: crude peptide, 5 μl of 64 μg/ml in 20 μl, bacteria OD600=0.4 in water, 2 h, confocal microscopy
# [4] = tested on: Pectobacterium carotovorum subsp. carotovorum (Pcc); assay: Plant disease response, Pcc infection of tomato L390 leaves; type: in vivo, Solanum lycopersicum; details: for size of disease lesions caused by Pcc, tomato: crude peptide 16 μg/ml mixed with Pcc, detached wounded tomato L390 leaves, 16–28 h post-inoculation, vs water
# [5] = tested on: Pectobacterium carotovorum subsp. carotovorum (Pcc); assay: Plant disease response, Pcc infection of Arabidopsis Col0 leaves; type: in vivo, Arabidopsis thaliana; details: crude peptide 16 μg/ml mixed with Pcc, wounded leaves of Arabidopsis Col0, 16–28 h post-inoculation, vs water
# [6] = tested on: Botrytis cinerea (Bc); assay: Plant disease response, Bc infection of tomato L390 leaves; type: in vivo, Solanum lycopersicum; details: crude peptide 16 μg/ml mixed with Bc spores (10^4 spores/ml), 47–70 h post-inoculation, vs water
# [7] = tested on: Botrytis cinerea (Bc); assay: Plant disease response, Bc infection of Arabidopsis Col0 leaves; type: in vivo, Arabidopsis thaliana; details: for development of the lesion caused by Bc, Arabidopsis: crude peptide 16 μg/ml mixed with Bc spores (10^5 spores/ml), Arabidopsis Col0 leaves, 47–70 h post-inoculation, vs water
# [8] = tested on: Eco DH5α; details: 48 h
# [9] = tested on: Xev Xvt28; details: 48 h
# [10] = tested on: Xoo Xoo28; details: Table 4, rich medium, up to 32 μg/ml; for MIC: 48 h, no visible growth; for MBC: spotted on rich agar 48 h, no colony
# [11] = tested on: Pcc; details: up to 32 μg/ml
# [12] = tested on: Pst DC3000; details: Table 4, rich medium, up to 32 μg/ml; for MIC: 48 h, no visible growth; for MBC: spotted on rich agar 48 h, no colony
# [13] = tested on: Pss B728a; details: Table 4, rich medium, up to 32 μg/ml; for MIC: 48 h, no visible growth; for MBC: spotted on rich agar 48 h, no colony
# [14] = tested on: Ech; details: up to 32 μg/ml
# [15] = tested on: Rs Pss4; details: Table 5, minimal medium, crude peptides, up to 32 μg/ml; for MIC: 96 h; for MBC/MFC: spotted on rich agar 48 h
# [16] = tested on: Rs Pss190; details: Table 5, minimal medium, crude peptides, up to 32 μg/ml; for MIC: 96 h; for MBC/MFC: spotted on rich agar 48 h
# [17] = tested on: Bc; details: for MIC / MBC/MFC: Table 5, minimal (CD) medium, crude peptides, up to 32 μg/ml; for MIC: spores, 96 h; for MBC/MFC: spotted on PD plate 24~72 h; for antimicrobial activity: at the highest peptide concentration (32μg/ml) tested, data not shown, before the tests in minimal media
# [18] = tested on: Cgl FST02; details: for MIC / MBC/MFC: Table 5, minimal (CD) medium, crude peptides, up to 32 μg/ml; for MIC: spores, 96 h; for MBC/MFC: spotted on PD plate 24~72 h; for antimicrobial activity: at the highest peptide concentration (32μg/ml) tested, data not shown, before the tests in minimal media
# [19] = Table 4, rich medium, 48 h, no visible growth
# [20] = Table 5, minimal medium, crude peptides, 96 h
# [21] = Table 5, minimal medium, crude peptides, spotted on rich agar 48 h
# [22] = Table 7, rich media, spotted on rich agar 48 h
Substance,antimicrobial activity [1],membranolytic effect (SYTOX Green staining) [2],membranolytic effect (SYTOX Green staining) [3],"size of disease lesions caused by Pcc, tomato [4]","size of disease lesions caused by Pcc, Arabidopsis [5]","development of the lesion caused by Bc, tomato [6]","development of the lesion caused by Bc, Arabidopsis [7]",MBC [8] [µg/mL],MBC [9] [µg/mL],MIC [9] [µg/mL],MIC [10] [µg/mL],MBC [10] [µg/mL],"MIC [11, 19] [µg/mL]","MIC [11, 20] [µg/mL]","MBC/MFC [11, 21] [µg/mL]",MIC [12] [µg/mL],MBC [12] [µg/mL],MIC [13] [µg/mL],MBC [13] [µg/mL],"MIC [14, 20] [µg/mL]",also measured
Ac-WKKLKKLLKKLKKL-NH2 [pepD2],did not have detectable antimicrobial activity,significant membranolytic effect,significant membranolytic effect,did not detectably inhibit the diseases,did not detectably inhibit the diseases,did not detectably inhibit the diseases,did not detectably inhibit the diseases,8,4,4,4,8,8,8,8,4,8,8,16,16,"Plant response to infection with Pcc, Tomato (class and significance; number of batches in parentheses) ([4]; crude peptide 16 µg/mL, lesion diameter 16–28 h post-inoculation, Student's t-test vs water-treated): ns(3); Plant response to infection with Bc, Arabidopsis (class and significance; number of batches in parentheses) ([7]; crude peptide 16 µg/mL, lesion diameter 47–70 h post-inoculation, Student's t-test vs water-treated): ns(2 ); MIC ([11]; Table 7, rich media, 48 h): 4 µg/mL; MBC [11, 22]: 8 µg/mL; MBC/MFC [14, 21]: 16 µg/mL; MIC ([14]; Table 7, rich media, 48 h): 32 µg/mL; MBC [14, 22]: 32 µg/mL; MIC [15]: – (“–” indicates that no antimicrobial activity was detected in minimal media at the highest concentration (32μg/ml) of crude peptides that was tested in this study.); MBC/MFC [15]: – (“–” indicates that no antimicrobial activity was detected in minimal media at the highest concentration (32μg/ml) of crude peptides that was tested in this study.); MIC [16]: – (“–” indicates that no antimicrobial activity was detected in minimal media at the highest concentration (32μg/ml) of crude peptides that was tested in this study.); MBC/MFC [16]: – (“–” indicates that no antimicrobial activity was detected in minimal media at the highest concentration (32μg/ml) of crude peptides that was tested in this study.); MIC [17]: – (“–” indicates that no antimicrobial activity was detected in minimal media at the highest concentration (32μg/ml) of crude peptides that was tested in this study.); MBC/MFC [17]: – (“–” indicates that no antimicrobial activity was detected in minimal media at the highest concentration (32μg/ml) of crude peptides that was tested in this study.); antimicrobial activity [17]: did not have detectable antimicrobial activity; MIC [18]: – (“–” indicates that no antimicrobial activity was detected in minimal media at the highest concentration (32μg/ml) of crude peptides that was tested in this study.); MBC/MFC [18]: – (“–” indicates that no antimicrobial activity was detected in minimal media at the highest concentration (32μg/ml) of crude peptides that was tested in this study.); antimicrobial activity [18]: did not have detectable antimicrobial activity"
Ac-WKKLKKLLKKL-NH2 [pepD3],did not have detectable antimicrobial activity,significant membranolytic effect,significant membranolytic effect,did not detectably inhibit the diseases,did not detectably inhibit the diseases,did not detectably inhibit the diseases,did not detectably inhibit the diseases,16,4,4,4,4,8,8,16,8,16,8,16,32,MIC [8]: 8 µg/mL; MIC [15]: – (“–” indicates that no antimicrobial activity was detected in minimal media at the highest concentration (32μg/ml) of crude peptides that was tested in this study.); MBC/MFC [15]: – (“–” indicates that no antimicrobial activity was detected in minimal media at the highest concentration (32μg/ml) of crude peptides that was tested in this study.); MIC [16]: – (“–” indicates that no antimicrobial activity was detected in minimal media at the highest concentration (32μg/ml) of crude peptides that was tested in this study.); MBC/MFC [16]: – (“–” indicates that no antimicrobial activity was detected in minimal media at the highest concentration (32μg/ml) of crude peptides that was tested in this study.); MIC [17]: – (“–” indicates that no antimicrobial activity was detected in minimal media at the highest concentration (32μg/ml) of crude peptides that was tested in this study.); MBC/MFC [17]: – (“–” indicates that no antimicrobial activity was detected in minimal media at the highest concentration (32μg/ml) of crude peptides that was tested in this study.); antimicrobial activity [17]: did not have detectable antimicrobial activity; MIC [18]: – (“–” indicates that no antimicrobial activity was detected in minimal media at the highest concentration (32μg/ml) of crude peptides that was tested in this study.); MBC/MFC [18]: – (“–” indicates that no antimicrobial activity was detected in minimal media at the highest concentration (32μg/ml) of crude peptides that was tested in this study.); antimicrobial activity [18]: did not have detectable antimicrobial activity

# From PMC8514817, “De Novo Design of Antimicrobial Peptides With a Special Charge Pattern and Their Application in Combating Plant Pathogens” (Frontiers in Plant Science, 2021)
